Structures are written as SMILES. Some results are limits rather than exact numbers.

One assay has as its system NF-κB. Nature of the assay: NF-κB luciferase reporter assay in RAW 264.7 macrophages. Format: cell-based. Conditions: Mus musculus, RAW264.7, 3 h, read-out: NF-kB inhibitory activity IC50 μM. As for the experimental part: RAW 264.7 cells stably expressing a 3×NFkB response element-drive luciferase reporter were seeded into 96 well plates in sera-free medium (Optimem) 18 hours prior to compound application. Compounds of the invention were prepared by first making 100 mM stock solutions in EtOH. […] Cells were then stimulated with 200 ng/ml LPS or vehicle control for 3 hours in the presence of the compounds of the invention. A set of six vehicles was left unstimulated with LPS in order to measure the assay floor. AlamarBlue viability dye (Invitrogen) was added to cells simultaneously with the delivery of LPS (final AlamarBlue concentration of 10%). After the 3 h incubation period with LPS, cell viability was measured by reading fluorescence (excitation 550 nm, emission 595 nm) with a Perkin Elmer Victor V plate reader. Then cell media was aspirated from each well. Luciferase signal was then developed by addition of the Britelite Plus reagent (Perkin Elmer). Luciferase activity was measured with the Perkin Elmer Victor V plate reader. NE-κB activity was expressed as a percent of the vehicle control wells (stimulated with LPS). Compounds were tested at 6 dose point titrations in triplicate to determine IC50 values.
Take `CC(C)CN(C[C@@H](O)[C@H](Cc1ccccc1)NC(=O)O[C@H]1CO[C@H]2OCC[C@H]21)S(=O)(=O)c1ccc(N)cc1` [Darunavir, darunavir, reference compound]: the IC50 was more than 200 µM. Still for that read-out and setting: in the case of `CC/C=C\C/C=C\C/C=C\C/C=C\C/C=C\CCCC(=O)NCCNP(=O)(OC)OC[C@@H]1O[C@H](n2ccc(N)nc2=O)CS1` (stereo partly drawn) [II-70, ((2R,5S)-5-(4-amino-2-oxopyrimidin-1(2H)-yl)-1,3-oxathiolan-2-yl)methyl methyl (2-((5Z,8Z,11Z,14Z,17Z)-icosa-5,8,11,14,17-pentaenamido)ethyl)phosphoramidate] it was 50 to 200 µM.

Still in this assay, the particulars now being: Mus musculus, RAW264.7; RAW 264.7 reporter cells, 200 ng/ml LPS, 3 hours; read-out: NF-kB inhibitory activity IC50.
Consider `C=C1[C@H](CO)[C@@H](O)C[C@@H]1n1cnc2c(=O)[nH]c(N)nc21` [Entecavir, entecavir, reference compound], for which the IC50 is more than 200 µM.

On to `CC/C=C\C/C=C\C/C=C\C/C=C\C/C=C\C/C=C\CCC(=O)NCCOCCNC(=O)OC[C@H]1O[C@H](n2cc(C)c(=O)[nH]c2=O)C[C@@H]1N=[N+]=[N-]` [Example V-8, ((2S,3S,5S)-3-azido-5-(5-methyl-2,4-dioxo-3,4-dihydropyrimidin-1(2H)-yl)tetrahydrofuran-2-yl)methyl (2-(2-((4Z,7Z,10Z,13Z,16Z,19Z)-docosa-4,7,10,13,16,19-hexaenamido)ethoxy)ethyl)carbamate], for which the IC50 fell in the range of 50 to 200 µM.

In the case of `CC/C=C\C/C=C\C/C=C\C/C=C\C/C=C\C/C=C\CCC(=O)N[C@H](C(=O)OC[C@H]1O[C@H](n2cc(C)c(=O)[nH]c2=O)C[C@@H]1N=[N+]=[N-])C(C)C` [Example V-9, (S)-((2S,3S,5S)-3-azido-5-(5-methyl-2,4-dioxo-3,4-dihydropyrimidin-1(2H)-yl)tetrahydrofuran-2-yl)methyl 2-((4Z,7Z,10Z,13Z,16Z,19Z)-docosa-4,7,10,13,16,19-hexaenamido)-3-methylbutanoate], the IC50 fell in the range of 50 to 200 µM. As for `CC/C=C\C/C=C\C/C=C\C/C=C\C/C=C\C/C=C\CCC(=O)Nc1ncc2ncn(CCC(COC(C)=O)COC(C)=O)c2n1` [Example V-10, 2-(2-(2-((4Z,7Z,10Z,13Z,16Z,19Z)-docosa-4,7,10,13,16,19-hexaenamido)-9H-purin-9-yl)ethyl)propane-1,3-diyl diacetate], the IC50 was in the range of 50 to 200 µM. As to `CC/C=C\C/C=C\C/C=C\C/C=C\C/C=C\C/C=C\CCC(=O)Nc1ncc2ncn(CCC(CO)CO)c2n1` [Example V-11, (4Z,7Z,10Z,13Z,16Z,19Z)—N-(9-(4-hydroxy-3-(hydroxymethyl)butyl)-9H-purin-2-yl)docosa-4,7,10,13,16,19-hexaenamide], the IC50 was 50 to 200 µM.

As to `CC/C=C\C/C=C\C/C=C\C/C=C\C/C=C\CCCC(=O)Nc1ncc2ncn(CCC(COC(C)=O)COC(C)=O)c2n1` [Example V-12, 2-(2-(2-((5Z,8Z,11Z,14Z,17Z)-icosa-5,8,11,14,17-pentaenamido)-9H-purin-9-yl)ethyl)propane-1,3-diyl diacetate], the IC50 fell in the range of 50 to 200 µM. Take `CC/C=C\C/C=C\C/C=C\C/C=C\C/C=C\C/C=C\CCC(=O)NCCN(C)CCNC(=O)OC[C@H]1O[C@@H](n2ccc(N)nc2=O)[C@](C)(F)[C@@H]1O` [Example V-30, ((2R,3R,4R,5R)-5-(4-amino-2-oxopyrimidin-1(2H)-yl)-4-fluoro-3-hydroxy-4-methyltetrahydrofuran-2-yl)methyl (2-((2-((4Z,7Z,10Z,13Z,16Z,19Z)-docosa-4,7,10,13,16,19-hexaenamido)ethyl)(methyl)amino)ethyl)carbamate]: the IC50 was less than 50 µM. `CC(=O)OCC(CCn1cnc2cnc(N)nc21)COC(C)=O` [Famciclovir, reference compound]: the IC50 is more than 200 µM. For the compound `Nc1ccn([C@@H]2CS[C@H](CO)O2)c(=O)n1` [Lamivudine, lamivudine, reference compound], the IC50 is more than 200 µM.

For `Cc1cn([C@H]2C[C@H](N=[N+]=[N-])[C@@H](CO)O2)c(=O)[nH]c1=O` [Zidovudine, reference compound], the IC50 was more than 200 µM.

As a reminder, the IC50 is the concentration that inhibits the measured activity by half.

These data come from US20140288025A1, “FATTY ACID ANTIVIRAL CONJUGATES AND THEIR USES” (Catabasis Pharmaceuticals, Inc., priority 2013, published 2014).
